Experimental data reported in patent US8906860B2, “Methods and compositions inhibiting tumor cell proliferation” (The Board of Trustees of the University of Illinois, priority 2011, dated 2014).
Like-named read-outs stand apart in the source and are kept apart here. Square brackets hold non-standard residues; d marks the D form. Ends that are not written are not given here.

Experiments:
GFP-FoxM1B = test: Nuclear localization of transfected GFP-FoxM1B in U2OS cells; format: cell-based, human; settings: 1 μM
Source text: FIGS. 7A-H show nuclear localization of GFP-FoxM1B fusion protein following treatment with either pharmacological kinase inhibitors or dominant negative kinases. U20S cells were transiently transfected with CMV GFP-FoxM1B with the indicated pharmacological kinase inhibitors (B-D) or dominant-negative kinase expression vectors (E-H). Cells in panel (A) were untreated.
U2OS cells were transiently transfected in 2 well chamber slides (Nunc) with CMV GFP-FoxM1B expression constructs in the presence or absence of either CMV WT T7-p19^ARF, CMV HA-p19^ARF, or CMV expression constructs containing either N-terminal mutant T7-p19^ARF proteins (Δ1-14, Δ15-25, or Δ26-37) or V5-TAT-p19^ARF proteins (26-44; SEQ ID NO: 11, or 26-55; SEQ ID NO: 12). U2OS cells were transiently transfected with CMV EGFP expression vector containing the TAT-p19^ARF proteins (26-44; SEQ ID NO: 11, or 26-55; SEQ ID NO: 12). Forty-eight hours post transfection, cells were fixed in 4% Para-formaldehyde for 20 minutes at room temperature. GFP fluorescence or immuno-fluorescence with anti-HA antibody following TRITC conjugated secondary antibody was detected using a Zeiss microscope. U2OS cells were treated with 12 μM of the rrrrrrrrrKFVRSRRPRTASCALAFVN (SEQ ID NO: 10) peptide for 24 hours and then analyzed for TRITC fluorescence as described above.

[1] = tested on: FoxM1B transcriptional activity; test: FoxM1B transcriptional activity, 6xFoxM1B TATA-luciferase reporter assay in transfected U2OS cells; format: cell-based, human; settings: 12 μM peptide, 24 hours
Source text: A 6×FoxM1B/FoxA TATA-Luciferase utilized 6 copies of the FoxM1B/FoxA binding site (TTTGTTTGTTTG; SEQ ID NO: 6) from the cdx-2 promoter region driving expression of the CMV-TATA box luciferase reporter gene as described previously (Rausa et al., 2003, Mol. Cell. Biol. 23:437-449; Samadani et al., 1996, Mol. Cell. Biol. 16:6273-6284; Ye et al., 1997, Mol. Cell Biol. 17:1626-1641).
Inhibiting Cdk1 activity with either dominant negative (DN) Cdk1 or a pharmacologically active concentration of Alsterpaullone (1 μM) caused an 80% to 90% reduction in FoxM1B transcriptional activity (FIG. 6C). […] Consistent with these findings, stimulation of Cdk1 activity by co-transfection of either CMV Cdc25B or Cdc25C phosphatases enhanced FoxM1B transcriptional activity by 3.4-fold and 1.7-fold, respectfully (FIGS. 6B and 6D). […]
Human osteosarcoma U2OS cells were maintained in DMEM supplemented with 10% fetal calf serum, 1×Pen/Strep and 1×L-Glutamine (Gibco). […] Luciferase activity was determined as percent of wild type FoxM1B activity following normalization to Renilla activity. Experiments were performed at least four times in triplicate and mean±SD determined. […]

HCC = settings: cited from earlier work
[2] = tested on: CMV-TETO GFP-Foxm1b U2OS clone C3 cells; test: Soft agar colony formation, Doxycycline induced GFP-FoxM1B U2OS clone C3 cells; format: cell-based, human; settings: 12 μM peptide, 1 μg/ml Doxycycline, two weeks
Description: (§1) The T-REx™-U2OS cells were purchased from Invitrogen Life Technologies (Catalog No. R712-07). The T-REx™-U2OS cells express the Tet repressor from pCEP4/tetR that was episomally maintained in tissue culture medium containing 10% fetal calf serum and drug selection with 50 μg/ml of Hygromycin B. Tetracycline regulation in the T-REx System was based on the binding of tetracycline to the TET repressor and de-repressing of the CMV-TETO promoter controlling expression of the gene of interest (Yao et al., 1998, Hum Gene Ther 9:1939-1950). The pcDNA4-TO GFP-FoxM1B expression plasmid provided in the T-REx™ system was generated as described previously (Major et al., 2004, Mol. Cell. Biol. 24:2649-2661) and transfected T-REx™-U2OS cells with linearized pcDNA4-TO GFP-Foxm1b expression plasmid to select clonal Doxycycline inducible GFP-Foxm1b U2OS cell lines. CMV-TETO GFP-FoxM1B U2OS clones were isolated by selection for three weeks with tissue culture medium containing 50 μg/ml of Hygromycin B and 250 μg/ml of Zeocin. […] Wild type U2OS cells or CMV-TETO GFP-Foxm1b U2OS clone C3 cells were grown in medium with or without 1 μg/ml of Doxycycline for 2 days prior to either adding the (D-Arg)9-p19^ARF 26-44 peptide or left untreated. […] U2OS cell colonies that were larger than 1 mm in size were scored after two weeks of growth on the soft agar.

parental U2OS cells = test: Soft agar colony formation, parental U2OS cells; format: cell-based, human; settings: 12 μM peptide, two weeks
Description: as §1

S2 cells = settings: 24 hours
Description: TUNEL assay was used to measure apoptosis in S2 cells treated with WT-blocked, mutant-blocked or WT-unblocked (D-Arg)9-p19^ARF 26-44 peptides. (D-Arg)9-p19^ARF 26-44 peptide treatment of cells was performed in 8-well chamber slides for TUNEL staining. On Day 0, 20,000 cells per well were seeded in the 8-well chamber slides. On Day 1, slides were replenished with fresh media containing one of the following concentrations of either WT-blocked, mutant-blocked or WT-unblocked (D-Arg)9-p19^ARF 26-44 peptides: 10, 15, 25, 30, 40 and 70 μM for 24 hours. On Day 2, TUNEL staining was performed following the manufacture's protocol (ApopTag® Fluorescein In Situ Apoptosis Detection Kit from CHEMICON® International, S7110). The percent of apoptosis of S2 cells (±SD) was measured by counting the number of TUNEL-positive cells (green fluorescence) per 1,000 nuclei as visualized by DAPI (blue fluorescence) counterstaining. The experiment was repeated in a second experiment using the same protocol. Statistical analysis and EC50 calculation were performed using GraphPad Prism software.

[3] = tested on: p53 null thymic lymphoma cells; test: Kidney colonization of intravenously injected p53 null thymic lymphoma cells in SCID mice; format: in vivo, mouse; settings: 2.5 mg/kg intraperitoneal every other day, 10 injections
Description: These experiments were performed to determine if modifying the termini conferred any advantages on these peptides when administered to an animal. Both wild type ARF 26-44 (rrrrrrrrrKFVRSRRPRTASCALAFVN) (SEQ ID NO 10) and mutant ARF 37-44 (rrrrrrrrrSCALAFVN) (SEQ ID NO 21) peptides were synthesized by Genemed Synthesis Inc. (San Antonio, Tex.). The N-terminus of each peptide was fused with nine D-Arg(r) residues. Both wild type and mutant peptides were blocked with amidation on C-terminus and acetylation on N-terminus. For sarcoma cells, mice were treated with 5 mg/kg body weight of peptide every other day for 10 times. For lymphoma cells, mice were treated with 2.5 mg/kg body weight of peptide every other day for 10 times.
To test the therapeutic effect of the ARF-peptide on p53 null tumors in vivo, p53 null lymphoma/sarcoma cells were introduced into the circulation of SCID mice through intravenous injection. ICR SCID mice were obtained from Taconic Farms (Germantown, N.Y.). Both p53 null sarcoma and lymphoma cells were stably transduced before injection with lentivirus carrying a gene conferring luciferase expression. Specifically, cells were stably transduced with pFU-L2G luciferase construct obtained from Sanjiv Sam Gambhir (M. D., Ph.D) of Stanford University as optimized by Dr. Huiping Liu (Liu et al., Proc Natl Acad Sci USA, 107: 18115-18120). This construct enabled expression of both the bioluminescence and green fluorescence protein. eGFP positive cells were sorted by Beckman Coulter MoFlo. 3×10^6 cells were suspended in cold PBS and injected through the tail vein of SCID mice. Live animal imaging was performed using an IVIS Spectrum optical imaging machine (Caliper Life Sciences, Alameda, Calif.). […] Mice were randomized into three groups and were treated with PBS, mutant-peptide or the wild type ARF-peptide for 10 injections every other day by intraperitoneal injection. […] The mice were sacrificed and lung sections were analyzed for tumor colonies. […] For the p53 null thymic lymphoma cells, metastatic growth in kidney was observed, consistent with murine thymic lymphoma cells having a tendency to colonize kidney, liver and spleen (Aoudjit et al., 1998, Blood, 91: 623-629).

## O=C1Cc2c([nH]c3ccc([N+](=O)[O-])cc23)-c2ccccc2N1 [Alsterpaullone]
GFP-FoxM1B
  Nuclear localization of transfected CMV GFP-FoxM1B protein: Neither DN-Cdk1 nor Alsterpaullone (1 μM) altered nuclear localization

## rrrrrrrrrKFVRSRRPRTASCALAFVN ([dR][dR][dR][dR][dR][dR][dR][dR][dR]KFVRSRRPRTASCALAFVN; not fully specified (N-terminus, C-terminus); printed as rrrrrrrrrKFVRSRRPRTASCALAFVN; also: end groups differ between preparations (TRITC N-term/acetyl C-term vs Ac N-term/amide C-term); listed as Mus musculus) [(D-Arg)9-p19^ARF 26-44 peptide, p19ARF 26-44 peptide containing nine D-Arg residues at the N-terminus]
[1]
  Effect on FoxM1B transcriptional activity: significant reduction in FoxM1B transcriptional activity
HCC; mouse HCC (DEN/PB induced)
  HCC tumor size / progression: effective in diminishing tumor size in HCC
HCC; mouse HCC cells
  Metastasis of HCC cells: effectively prevented pulmonary metastasis of HCC cells
[2]
  FoxM1B induced colony formation on soft agar: significantly diminished the ability of induced GFP-FoxM1B to stimulate colony formation
Parental U2OS cells
  Colony formation on soft agar: significantly diminished the ability of the parental U2OS cells to form colonies on soft agar

## rrrrrrrrrKFVRSRRPRTASCALAFVN (not fully specified (N-terminus, C-terminus); printed as rrrrrrrrrKFVRSRRPRTASCALAFVN; UniProt Q64364 26-44, looked up, fragment) [WT Unblocked]
S2 cells; Experiment 1, 10 μM/Well
  % of TUNEL Positive S2 Cells, Mean: 2.46%
S2 cells; Experiment 1, 25 μM/Well
  % of TUNEL Positive S2 Cells, Mean: 1.27%
S2 cells; Experiment 1, 30 μM/Well
  % of TUNEL Positive S2 Cells, Mean: 5.59%
S2 cells; Experiment 1, 40 μM/Well
  % of TUNEL Positive S2 Cells, Mean: 19.94%
S2 cells; Experiment 2, 10 μM/Well
  % of TUNEL Positive S2 Cells, Mean: 6.79%
S2 cells; Experiment 2, 15 μM/Well
  % of TUNEL Positive S2 Cells, Mean: 7.56%
S2 cells; Experiment 2, 25 μM/Well
  % of TUNEL Positive S2 Cells, Mean: 11.19%
S2 cells; Experiment 2, 40 μM/Well
  % of TUNEL Positive S2 Cells, Mean: 20.51%
S2 cells; Experiment 2, 70 μM/Well
  % of TUNEL Positive S2 Cells, Mean: 30.34%
S2 cells; S2 cells, 10-70 μM
  Apoptosis induction compared between peptides (TUNEL): showed some activity compared to the mutant-blocked peptide at doses higher than 30 μM

## rrrrrrrrrSCALAFVN (SCALAFVN-NH2; not fully specified (N-terminus); printed as rrrrrrrrrSCALAFVN; UniProt Q64364 37-44, looked up, fragment) [mutant ARF peptide, reference compound]
[3]
  Kidney tumor mass at sacrifice: large tumor masses were found in the kidney
[3]; around 20 days after inoculation
  Luciferase signal from colonized lymphoma cells: displayed strong luciferase signals
